Test results taken from US10765114B2, “4-amino-6-(pyridyl and 2-substitutedphenyl)-picolinates and 6-amino-2-(pyridyl and 2-substitutedphenyl)-pyrimidine-4-carboxylates and their use as herbicides” (Dow AgroSciences LLC, priority 2013, dated 2020).
Read-outs that look alike come from different tables or passages of the source.

Tests used:
[1] = test system: Key Broadleaf Weed and Crop Species; test: Post-Emergent Test II (Table 5); assay type: in vivo; settings: post-emergence, 336 h; for pest or weed control at 70 g/ha: application rate 70 (kg ai/ha; footnote: g ai/ha); for pest or weed control at 140 g/ha: application rate 140 (kg ai/ha; footnote: g ai/ha)
Method in brief: (§1)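 Seedlings are raised 7-21 days in Metro-Mix 360 (pH 6.0-6.8) under greenhouse conditions, then sprayed at the first or second true leaf stage. Application is 187 L/ha, with serial rates down to 1/16× of the highest. Plants are subirrigated, and percent injury is rated visually after 14 days.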

[2] = test system: Key Grass and Sedge Weeds as well as Grass Crops; test: Post-Emergent Test II (Table 6); assay type: in vivo; settings: post-emergence, 336 h, 14 days after application; for pest or weed control at 70 g/ha: 70 g ai/ha; for pest or weed control at 140 g/ha: 140 g ai/ha
Method in brief: as §1

[3] = Abutilon theophrasti, ABUTH: velvetleaf (Abutilon theophrasti), read-out: Visual Growth Reduction (%) 14 Days After Application ABUTH
[4] = Amaranthus retroflexus, AMARE: redroot pigweed (Amaranthus retroflexus), read-out: Visual Growth Reduction (%) 14 Days After Application AMARE
[5] = Brassica napus, BRSSS: oilseed rape, canola (Brassica napus), read-out: Visual Growth Reduction (%) 14 Days After Application BRSSS
[6] = Chenopodium album, CHEAL: lambsquarters (Chenopodium album), read-out: Visual Growth Reduction (%) 14 Days After Application CHEAL
[7] = Euphorbia heterophylla, EPHHL: wild poinsettia (Euphorbia heterophylla), read-out: Visual Growth Reduction (%) 14 Days After Application EPHHL
[8] = Helianthus annuus, HELAN: sunflower (Helianthus annuus), read-out: Visual Growth Reduction (%) 14 Days After Application HELAN
[9] = Viola tricolor, VIOTR: wild pansy (Viola tricolor), read-out: Visual Growth Reduction (%) 14 Days After Application VIOTR
[10] = CYPSS, read-out: Visual Growth Reduction (%) 14 Days After Application CYPSS
[11] = DIGSA: crabgrass (Digitaria sanguinalis), read-out: Visual Growth Reduction (%) 14 Days After Application DIGSA
[12] = ECHSS, read-out: Visual Growth Reduction (%) 14 Days After Application ECHSS
[13] = ORYSS (crop), read-out: Visual Growth Reduction (%) 14 Days After Application ORYSS
[14] = SETFA: giant foxtail (Setaria faberi), read-out: Visual Growth Reduction (%) 14 Days After Application SETFA
[15] = SORVU: grain sorghum (Sorghum vulgare), read-out: Visual Growth Reduction (%) 14 Days After Application SORVU
[16] = TRZSS (crop), read-out: Visual Growth Reduction (%) 14 Days After Application TRZSS
[17] = ZEAMX: maize, corn (Zea mays), read-out: Visual Growth Reduction (%) 14 Days After Application ZEAMX

| SMILES | pest or weed control at 70 g/ha [1, 3] | pest or weed control at 140 g/ha [1, 3] | pest or weed control at 70 g/ha [1, 4] | pest or weed control at 140 g/ha [1, 4] | pest or weed control at 70 g/ha [1, 5] | pest or weed control at 140 g/ha [1, 5] | pest or weed control at 70 g/ha [1, 6] | pest or weed control at 140 g/ha [1, 6] | pest or weed control at 70 g/ha [1, 7] | pest or weed control at 140 g/ha [1, 7] | pest or weed control at 70 g/ha [1, 8] | pest or weed control at 140 g/ha [1, 8] | pest or weed control at 70 g/ha [1, 9] | pest or weed control at 140 g/ha [1, 9] | pest or weed control at 70 g/ha [2, 10] | pest or weed control at 140 g/ha [2, 10] | pest or weed control at 70 g/ha [2, 11] | pest or weed control at 140 g/ha [2, 11] | pest or weed control at 70 g/ha [2, 12] | pest or weed control at 140 g/ha [2, 12] | further results |
| --- | --- | --- | --- | --- | --- | --- | --- | --- | --- | --- | --- | --- | --- | --- | --- | --- | --- | --- | --- | --- | --- |
| Nc1cc(-c2ccc(Cl)c(F)c2CO)nc(C(=O)O)c1Cl [Compound 11, 4-Amino-3-chloro-6-(4-chloro-3-fluoro-2-(hydroxymethyl)phenyl)picolinic acid] | 0 to 29% | 0 to 29% | 0 to 29% | 0 to 29% | 0 to 29% | 0 to 29% | 0 to 29% | 75 to 84% | 0 to 29% | 0 to 29% | 0 to 29% | 0 to 29% | 0 to 29% | 0 to 29% | 0 to 29% | 0 to 29% | 0 to 29% | 0 to 29% | 0 to 29% | 0 to 29% | pest or weed control at 70 g/ha [2, 13]: 0 to 29%; pest or weed control at 140 g/ha [2, 13]: 0 to 29%; pest or weed control at 70 g/ha [2, 14]: 0 to 29%; pest or weed control at 140 g/ha [2, 14]: 0 to 29%; pest or weed control at 70 g/ha [2, 15]: 0 to 29%; pest or weed control at 140 g/ha [2, 15]: 0 to 29%; pest or weed control at 70 g/ha [2, 16]: 0 to 29%; pest or weed control at 140 g/ha [2, 16]: 0 to 29%; pest or weed control at 70 g/ha [2, 17]: 0 to 29%; pest or weed control at 140 g/ha [2, 17]: 0 to 29% |
| COC(=O)c1nc(-c2ccc(Cl)nc2F)cc(N)c1Cl [Compound 17, methyl 4-amino-5,6′-dichloro-2′-fluoro-[2,3′-bipyridine]-6-carboxylate] | 95 to 100% | 95 to 100% | 95 to 100% | 95 to 100% | 0 to 29% | 30 to 44% | 95 to 100% | 95 to 100% | 0 to 29% | 45 to 59% | 60 to 74% | 75 to 84% | 60 to 74% | 60 to 74% | 60 to 74% | 75 to 84% | 0 to 29% | 0 to 29% | 60 to 74% | 85 to 94% | pest or weed control at 70 g/ha [2, 13]: 0 to 29%; pest or weed control at 140 g/ha [2, 13]: 0 to 29%; pest or weed control at 70 g/ha [2, 14]: 0 to 29%; pest or weed control at 140 g/ha [2, 14]: 0 to 29%; pest or weed control at 70 g/ha [2, 15]: 0 to 29%; pest or weed control at 140 g/ha [2, 15]: 30 to 44%; pest or weed control at 70 g/ha [2, 16]: 0 to 29%; pest or weed control at 140 g/ha [2, 16]: 0 to 29%; pest or weed control at 70 g/ha [2, 17]: 0 to 29%; pest or weed control at 140 g/ha [2, 17]: 30 to 44% |
